Measurements taken from ChEMBL document CHEMBL5365500, “Development and Antibacterial Properties of 4-[4-(Anilinomethyl)-3-phenylpyrazol-1-yl]benzoic Acid Derivatives as Fatty Acid Biosynthesis Inhibitors” (J Med Chem, 2023).
In brackets after ≈: the same amount, converted by molar mass. Activity calls are given as the source filed them. No cut-off for these calls is given here.

Columns and labels:
[1] = system: Staphylococcus aureus; assay: Antimicrobial activity against antibiotic-resistant Staphylococcus aureus ATCC BAA-2312 assessed as inhibition of visible growth measured after 20 to 24 hrs incubation by CLSI method; type: functional; conditions: time 20-24 hrs
[2] = system: Cell membrane; assay: Induction of membrane permeability in Staphylococcus aureus ATCC 700699 assessed as increase in fluorescence at 8 times of MIC incubated for 15 mins measured for 1 hr by propidium iodide/real time fluorescence based flow cytometry; type: subcellular
[3] = system: Panel NCI-60 (60 carcinoma cell lines); assay: Cytotoxicity against human panel NCI-60 (60 carcinoma cell lines)cells assessed as cell viability at 10 uM measured after 24 hrs by resazurin assay; type: functional, cell-based
[4] = system: Staphylococcus aureus; assay: Bactericidal activity in antibiotic-resistant Staphylococcus aureus ATCC 700699 assessed as reduction in viable cell count at 4 times of MIC measured upto 24 hrs by time kill assay; type: functional, organism-based
[5] = system: Staphylococcus aureus; assay: Resistance development in methicillin-sensitive Staphylococcus aureus ATCC 25923 assessed as fold increase in MIC at 0.5 times of MIC measured at 4 to 6 th passages by multistep resistance assay; type: functional
[6] = system: Staphylococcus aureus; assay: Antimicrobial activity against Staphylococcus aureus UAB159 assessed as inhibition of growth measured after 20 to 24 hrs incubation by CLSI method; type: functional; conditions: time 20-24 hrs
[7] = system: Staphylococcus aureus; assay: Antimicrobial activity against methicilline-resistant Staphylococcus aureus ATCC 700699 persisters assessed as reduction in initial persister concentration at 2 times of MIC concentration measured for 2 to 8 hrs by Persisters time course assay; type: functional, organism-based; conditions: time 2-8 hrs
[8] = system: Staphylococcus aureus; assay: In vivo antimicrobial activity against Staphylococcus aureus Newman infected in Caenorhabditis elegans AU37 nematodes assessed as viability of nematodes incubated for 5 days by susceptibility test; type: functional; conditions: 120 h, time 5 day
[9] = system: Staphylococcus aureus; assay: Antimicrobial activity against methicilline-resistant Staphylococcus aureus ATCC 700699 persisters assessed as reduction in initial persister concentration at 16 times of MIC concentration measured for 2 hrs by Persisters time course assay; type: functional, organism-based
[10] = system: Enterococcus faecalis; assay: Antimicrobial activity against antibiotic-susceptible Enterococcus faecalis ATCC 29212 assessed as eradication of biofilm measured after 24 hrs incubation by Calgary method; type: functional
[11] = system: Bacillus subtilis; assay: Antimicrobial activity against antibiotic-resistant Bacillus subtilis ATCC 6623 assessed as inhibition of visible growth measured after 20 to 24 hrs incubation by CLSI method; type: functional; conditions: time 20-24 hrs
[12] = system: Staphylococcus aureus; assay: Antimicrobial activity against antibiotic-resistant Staphylococcus aureus ATCC 33591 assessed as inhibition of visible growth measured after 20 to 24 hrs incubation by CLSI method; type: functional; conditions: time 20-24 hrs
[13] = system: Staphylococcus aureus; assay: Antimicrobial activity against clinical isolate Staphylococcus aureus Smu57 assessed as inhibition of growth measured after 20 to 24 hrs incubation by CLSI method; type: functional; conditions: time 20-24 hrs
[14] = system: Staphylococcus aureus; assay: In vivo antimicrobial activity against Staphylococcus aureus UAMS-1 infected in Caenorhabditis elegans AU37 nematodes assessed as viability of nematodes incubated for 5 days by susceptibility test; type: functional; conditions: UAMS-1, 120 h, time 5 day
[15] = system: Staphylococcus aureus; assay: Antimicrobial activity against clinical isolate Staphylococcus aureus Smu21 assessed as inhibition of growth measured after 20 to 24 hrs incubation by CLSI method; type: functional; conditions: time 20-24 hrs
[16] = system: Staphylococcus aureus; assay: Antimicrobial activity against clinical isolate Staphylococcus aureus Smu9 assessed as inhibition of growth measured after 20 to 24 hrs incubation by CLSI method; type: functional; conditions: time 20-24 hrs
[17] = system: Staphylococcus aureus; assay: Antimicrobial activity against Staphylococcus aureus ATCC 25923 assessed as inhibition of biofilm formation by measuring prevention of turbidity after 24 hrs incubation by Real-time monitoring method; type: functional
[18] = system: Staphylococcus aureus; assay: Antimicrobial activity against clinical isolate Staphylococcus aureus Smu109 assessed as inhibition of growth measured after 20 to 24 hrs incubation by CLSI method; type: functional; conditions: time 20-24 hrs
[19] = system: Enterococcus faecium; assay: Antimicrobial activity against Enterococcus faecium […] assessed as inhibition of biofilm formation after 24 hrs incubation by Real-time monitoring method; type: functional
[20] = system: Erythrocyte; assay: Hemolytic activity in sheep red blood cells assessed as hemolysis at 16 to 32 ug/ml incubated for 30 mins relative to control; type: toxicity, cell-based, Ovis aries; conditions: 0.5 h, dose 16-32 µg/ml
[21] = system: Erythrocyte; assay: Hemolytic activity in sheep red blood cells assessed as hemolysis at 64 ug/ml incubated for 30 mins relative to control; type: toxicity, cell-based, Ovis aries; conditions: 0.5 h, at 64 µg/mL
[22] = system: Cell membrane; assay: Induction of membrane permeability in Staphylococcus aureus ATCC 700699 assessed as increase in fluorescence at 0.5 to 2 times of MIC incubated for 15 mins measured for 1 hr by propidium iodide/real time fluorescence based flow cytometry; type: subcellular; conditions: time 75.0 min
[23] = system: Enterococcus faecalis; assay: Antimicrobial activity against Enterococcus faecalis ATCC 29212 assessed as inhibition of biofilm formation by measuring prevention of turbidity after 24 hrs incubation by Real-time monitoring method; type: functional
[24] = system: Staphylococcus aureus; assay: Antimicrobial activity against methicilline-resistant Staphylococcus aureus ATCC 700699 persisters assessed as bacterial killing at 32 time of MIC concentration measured for every 2 hrs upto 8 hrs by Persisters time course assay; type: functional, organism-based
[25] = system: Staphylococcus aureus; assay: In vivo antimicrobial activity against Staphylococcus aureus USA300 infected in Caenorhabditis elegans AU37 nematodes assessed as viability of nematodes incubated for 5 days by susceptibility test; type: functional; conditions: USA300, 120 h, time 5 day
[26] = system: Staphylococcus aureus; assay: Antimicrobial activity against methicilline-resistant Staphylococcus aureus ATCC 700699 persisters assessed as reduction in initial persister concentration at 8 times of MIC concentration measured for 8 hrs by Persisters time course assay; type: functional
[27] = system: Staphylococcus aureus; assay: Antimicrobial activity against clinical isolate Staphylococcus aureus Smu81 assessed as inhibition of growth measured after 20 to 24 hrs incubation by CLSI method; type: functional; conditions: time 20-24 hrs
[28] = system: Staphylococcus aureus; assay: Antimicrobial activity against Staphylococcus aureus ATCC 25923 assessed as inhibition of visible growth measured after 20 to 24 hrs incubation by CLSI method; type: functional; conditions: time 20-24 hrs
[29] = system: Staphylococcus aureus; assay: Antimicrobial activity against antibiotic-resistant Staphylococcus aureus ATCC 33592 assessed as inhibition of visible growth measured after 20 to 24 hrs incubation by CLSI method; type: functional; conditions: time 20-24 hrs
[30] = system: Staphylococcus aureus; assay: Antimicrobial activity against Staphylococcus aureus ATCC 25923 assessed as eradication of biofilm measured after 24 hrs incubation by Calgary method; type: functional
[31] = system: Enterococcus faecalis; assay: Antimicrobial activity against antibiotic-resistant Enterococcus faecalis ATCC 51299 assessed as inhibition of visible growth measured after 20 to 24 hrs incubation by CLSI method; type: functional; conditions: time 20-24 hrs
[32] = system: Enterococcus faecium; assay: Antimicrobial activity against antibiotic-resistant Enterococcus faecium ATCC 700221 assessed as inhibition of visible growth measured after 20 to 24 hrs incubation by CLSI method; type: functional; conditions: time 20-24 hrs
[33] = system: Staphylococcus aureus; assay: Antimicrobial activity against antibiotic-susceptible Staphylococcus aureus ATCC 25923 assessed as inhibition of biofilm formation after 24 hrs incubation by Real-time monitoring method; type: functional
[34] = system: Staphylococcus aureus; assay: Antimicrobial activity against antibiotic-susceptible Staphylococcus aureus ATCC 25923 assessed as inhibition of biofilm formation on plastic coverslips at 0.5 times of MIC measured after 24 hrs by electron microscopy; type: functional, organism-based
[35] = system: Enterococcus faecalis; assay: Antimicrobial activity against antibiotic-susceptible Enterococcus faecalis ATCC 29212 assessed as inhibition of biofilm formation by measuring prevention of turbidity after 24 hrs incubation by Real-time monitoring method; type: functional
[36] = system: Staphylococcus aureus; assay: Antimicrobial activity against antibiotic-susceptible Staphylococcus aureus ATCC 25923 assessed as inhibition of biofilm formation by measuring prevention of turbidity after 24 hrs incubation by Real-time monitoring method; type: functional
[37] = system: Cell membrane; assay: Induction of membrane damage in Staphylococcus aureus ATCC 700699 assessed as cell surface damage at 1 to 4 times of MIC measured after 30 mins by Scanning electron microscopy; type: subcellular
[38] = system: Cell membrane; assay: Induction of membrane permeability in Staphylococcus aureus ATCC 700699 assessed as increase in fluorescence intensity at 1 times of MIC incubated for 15 mins measured for 1 hr by propidium iodide/real time fluorescence based flow cytometry Rvb = 3.5); conditions: time 75.0 min
[39] = system: Cell membrane; assay: Induction of membrane permeability in Staphylococcus aureus ATCC 700699 assessed as increase in fluorescence intensity at 4 times of MIC incubated for 15 mins measured for 1 hr by propidium iodide/real time fluorescence based flow cytometry Rvb = 3.5); conditions: time 75.0 min
[40] = system: Staphylococcus aureus; assay: Antimicrobial activity against methicilline-resistant Staphylococcus aureus ATCC 700699 persisters assessed as reduction in initial persister concentration at 16 times of MIC concentration measured for 6 hrs by Persisters time course assay; type: functional, organism-based
[41] = Toxicity in Caenorhabditis elegans AU37 assessed as survival at 4 ug/ml measured for 4 days; conditions: 96 h, dose 4 µg/ml, time 4 day
[42] = Toxicity in Caenorhabditis elegans AU37 assessed as survival at 20 ug/ml measured for 4 days; conditions: at 20 µg/mL, time 4 day
[43] = system: HEK293; assay: Cytotoxicity against human HEK293 cells assessed as cell viability measured after 24 hrs by resazurin assay; type: toxicity, cell-based
[44] = system: Cell membrane; assay: Induction of membrane permeability in Staphylococcus aureus ATCC 700699 assessed as increase in fluorescence intensity at 2 times of MIC incubated for 15 mins measured for 1 hr by propidium iodide/real time fluorescence based flow cytometry Rvb = 3.5); type: subcellular; conditions: time 75.0 min

Row | SMILES | MIC [1] | Activity [2] | Activity [3] | MIC [6] | Activity [7] | MIC [8] | MIC [11] | MIC [12] | MIC [13] | MIC [14] | MIC [15] | MIC [16] | MIC [17] | MIC [18] | MBIC [19] | Activity [20] | Activity [21] | Activity [22] | MIC [23] | MIC [25] | other results
1 | O=C(O)c1ccc(-n2cc(CNc3ccc(Br)c(C(F)(F)F)c3)c(-c3cccc(F)c3)n2)cc1 | 1 µg/mL (≈ 1.87 µM) | inactive | inactive | 4 µg/mL (≈ 7.49 µM) | inactive | 1 µg/mL (≈ 1.87 µM) | 0.5 µg/mL (≈ 0.936 µM) | 0.5 µg/mL (≈ 0.936 µM) | 2 µg/mL (≈ 3.74 µM) | 1 µg/mL (≈ 1.87 µM) | 4 µg/mL (≈ 7.49 µM) | 4 µg/mL (≈ 7.49 µM) | 2 µg/mL (≈ 3.74 µM) | 2 µg/mL (≈ 3.74 µM) | 8 µg/mL | Non-Toxic | < 10% | inactive | 8 µg/mL (≈ 15 µM) | 1 µg/mL (≈ 1.87 µM) | Activity [4]: Active; fold change (FC) [5]: 2; Activity [9]: Active; MBEC [10]: 2 µg/mL; Activity [24]: Active; log(activity) [26]: 6; MIC [27]: 4 µg/mL (≈ 7.49 µM); MIC [28]: 1 µg/mL (≈ 1.87 µM); MIC [29]: 0.5 µg/mL (≈ 0.936 µM)
2 | CN[C@H](CC(C)C)C(=O)N[C@H]1C(=O)N[C@@H](CC(N)=O)C(=O)N[C@H]2C(=O)N[C@H]3C(=O)N[C@H](C(=O)N[C@H](C(=O)O)c4cc(O)cc(O)c4-c4cc3ccc4O)[C@H](O)c3ccc(c(Cl)c3)Oc3cc2cc(c3O[C@@H]2O[C@H](CO)[C@@H](O)[C@H](O)[C@H]2O[C@H]2C[C@](C)(N)[C@H](O)[C@H](C)O2)Oc2ccc(cc2Cl)[C@H]1O [VANCOMYCIN] | – | – | – | – | – | – | 0.25 µg/mL (≈ 0.173 µM) | – | – | – | – | – | 8 µg/mL (≈ 5.52 µM) | – | >16 µg/mL | – | – | – | – | – | MBEC [30]: >32 µg/mL; MIC [31]: > 32 µg/mL; MIC [32]: > 32 µg/mL; MBIC [33]: >16 µg/mL; Activity [34]: Active; MBBC [35]: >16 µg/mL; MBBC [36]: >16 µg/mL
3 | O=C(O)c1ccc(-n2cc(CNc3cc(Br)cc(C(F)(F)F)c3)c(-c3ccc(F)c(F)c3)n2)cc1 | 1 µg/mL (≈ 1.81 µM) | inactive | inactive | 4 µg/mL (≈ 7.24 µM) | inactive | 1 µg/mL (≈ 1.81 µM) | 0.5 µg/mL (≈ 0.905 µM) | 1 µg/mL (≈ 1.81 µM) | 2 µg/mL (≈ 3.62 µM) | 1 µg/mL (≈ 1.81 µM) | 2 µg/mL (≈ 3.62 µM) | 2 µg/mL (≈ 3.62 µM) | 2 µg/mL (≈ 3.62 µM) | 2 µg/mL (≈ 3.62 µM) | 4 µg/mL | Non-Toxic | < 10% | inactive | 4 µg/mL (≈ 7.24 µM) | 1 µg/mL (≈ 1.81 µM) | Activity [37]: Active; Activity [38]: 18.5%; Activity [39]: 96.7%; Activity [40]: Active; Activity [34]: Active; Activity [41]: Non-Toxic; MBBC [35]: 8 µg/mL; survival at 96 h, 20 ug/ml [42]: > 80%; MBBC [36]: 8 µg/mL; IC50 [43]: 27 µg/mL (≈ 48.9 µM); log(activity) [26]: 6; MIC [27]: 4 µg/mL (≈ 7.24 µM); MIC [28]: 1 µg/mL (≈ 1.81 µM); Activity [44]: 32.8%; MIC [29]: 1 µg/mL (≈ 1.81 µM)
